# Literature values, collected in patent US12134602B2 (Yale University, priority 2011, dated 2024).
# Conditions: in vivo
compound,measurement,value
"C/C=C1\[C@H]2C=C(C)C[C@]1(N)c1ccc(=O)[nH]c1C2 [(−)-Huperzine A, (−)-huperzine A]",tolerability,well tolerated
